Test results reported in patent publication US5278158A, “Oxazinobenzazole compounds” (Yamanouchi Pharmaceutical Co., Ltd., priority 1991, dated 1994).

Experiments:
[1] = test system: 3,4-Diaminopyridine Induced Rhythmic Contractions; experiment: Effects on 3,4-Diaminopyridine Induced Rhythmic Contractions (isolated coronary artery rings); set-up: species or system Mongrel dogs; conditions: Canis lupus familiaris, isolated dog coronary artery rings, 10 mM 3,4-diaminopyridine; for IC50: read-out: IC50 (inhibitory effect on the frequency of the rhythmic contractions); for IC100: read-out: IC100 (inhibitory effect on the frequency of the rhythmic contractions)
Method: (1) Effects on 3,4-Diaminopyridine Induced Rhythmic Contractions
The experiment was carried out according to the method of Uchida, Sugimoto, et al. (Myakkangaku, 24, 133-143, 1984). Mongrel dogs of either sex were anesthetized with intravenous administration of 30 mg/Kg pentobarbital and were sacrificed by bleeding and then, the heart was excised from each animal. In the Krebs-Henseleit solution, the left circumflex branch or the anterior descending branch was isolated and cut into rings about 2 mm in width. The ring segments were fixed to a stainless-steal hook, and suspended in 37° C. Krebs-Henseleit solution aerated with a mixed gas (95% O2 and 5% CO2) under a tension load of 1.0 g, and isometric contractions were recorded. After the specimen was stabilized for 30 minutes, and rhythmic contractions were induced by treatment with 10 mM 3,4-diamiopyridine. After the amplitude and frequency of rhythmic contractions became substantially steady, a test compound was cumulatively added to the nutritious solution, and the concentration-response curves for the amplitude and frequency of the contractions were constructed and efficacy was evaluated.
[…] (the concentrations required to inhibit the frequency of the rhythmic contractions) of the compounds of this invention are between 0.1 and 10 μM.

blood pressure [2] = experiment: Effects on the Cardiovascular Systems (anesthetized dogs, i.v.); format: in vivo, Mongrel dogs; conditions: 10 μg/kg i.v.
Method: (2) Effects on the Cardiovascular Systems
Mongrel dogs of either sex were anesthetized with intravenous administration of 30 mg/Kg pentobarbital, and after tracheal intubation, the experiments were performed under artificial respiration. After thoracotomy, heart rate, blood pressure, left ventricle pressure, max. dLVP/dt, pulmonary artery pressure, central venous pressure, cardiac output and the coronary artery blood flow were measured. The effects of test compound on these parameters were evaluated by administering it through the cannula indwelt in the femoral vein. The present compounds are effective for lowering blood pressure at a dose of 1 to 1000 μg/kg i.v.

coronary artery = experiment: Coronary Vasodilating Effect (anesthetized dogs, intracoronary); format: in vivo, Mongrel dogs; conditions: i.a.; action of 300 μg papaverine set as 100%
Method: (3) Coronary Vasodilating Effect
Mongrel dogs of either sex were anesthetized with intravenous administration of 30 mg/Kg pentobarbital.
After tracheal intubation, the experiments was conducted under artificial respiration. After thoracotomy, the left circumflex branch was perfused with the autologous blood derived from the carotid artery at a constant pressure through an extracorporeal circuit. Coronary blood flow was measured with an electromagnetic flow probe installed in the extra-corporeal circuit. The test compound was administered directly into the coronary artery through the extra-corporeal circuit and the coronary vasodilating effects were evaluated.
The dilating action was expressed as percentage with the action of 300 μg papaverine being set as 100%, and the dose required to produce a blood flow increase of 100% (ED100pap) was calculated.

blood pressure [3] = experiment: Hypotensive Effect in spontaneously hypertensive rats (oral); format: in vivo, Spontaneously hypertensive rats (SHR) of Okamoto-Aoki strain; conditions: 300 μg/Kg p.o.; conscious SHR
Method: Spontaneously hypertensive rats (SHR) of Okamoto-Aoki strain were anesthetized with pentobarbital, 60 mg/kg i.p. Then, a cannula for blood pressure measurement was indwelt in the left common carotid artery and the other end of the cannula was led out extracorporeally from the posterior neck. After a stabilization period of 4-5 days, blood pressure and heart rate were measured under freely moving condition.
The test compound was suspended in 0.5% methylcellulose solution and the suspension was orally administered in a volume of 5 ml/Kg and the efficacy was evaluated.

| IC50 [1] [nM] | SMILES | IC100 [1] [µM] | MBP (mean blood pressure-lowering effect) (blood pressure [2]) | ED100PAP (dose required to produce a blood flow increase of 100%) (coronary artery) [µg] | MBP (blood pressure [3]) |
| --- | --- | --- | --- | --- | --- |
| 170 | CC1(C)CN(c2cccc[n+]2[O-])c2cc3no[n+]([O-])c3cc2O1 [Example 4, 7,8-Dihydro-6,6-dimethyl-8-(2'-pyridyl)-6H-[1,4]oxazino[2,3-f][2,1,3]benzoxadiazole 3,1'-dioxide] | 1.23 | -10 Δ% |  |  |
| 150 | CC1(C)CN(c2cccc[n+]2[O-])c2cc3nonc3cc2O1 [Example 2, 2-(7,8-dihydro-6,6-dimethyl-6H-[1,4]oxazino[2,3-f][2,1,3]benzoxadiazol-8-yl)pyridine N-oxide] | 0.66 | -33 Δ% | 3.5 | -45 Δ% |
